Measurements taken from publication PMC9146374, “Extra Virgin Olive Oil Secoiridoids Modulate the Metabolic Activity of Dacarbazine Pre-Treated and Treatment-Naive Melanoma Cells” (Molecules, 2022).
Values joined by “and” are separate entries in the source; they are usually repeats but may differ in a detail not shown here. Equal values may be shown once. Read-outs that look alike come from different tables or passages of the source.

What was measured:
A375 melanoma cell line = experiment: MTS assay of metabolic activity (cell viability), 48 h exposure, A375 cells; assay type: cell-based, human; settings: for IC60 / IC50: A375, 48 h, MTS, ± SEM; for IC60: concentration decreasing biological activity to 60%
Description: (§1) Biological activity upon treatment with EVOO-PEs, DTIC, OCEIN, and OCAL was evaluated using an MTS assay in in vitro experimental models, including the A375 and A375M cancer cell lines and HaCaT immortalized cell line. […] Due to the fast cell growth rate, a longer incubation period or denser initial seeding caused the overgrowth of untreated cells. In comparison, a shorter incubation period or lower initial density caused the effect of the test substances to be more difficult to detect. Therefore, the experiments were performed within a 48-hour timeframe. In addition, to avoid the misinterpretation of the results, we checked whether the vehicle, which was DMSO for the test substances, had any effect on metabolic activity by exposing each cell type to 0.2 and 0.4% DMSO, i.e., to the highest final DMSO concentrations achieved with the highest final concentrations of test substances. […] Accordingly, the effects of the test substances were determined as relative biological activities (in terms of cell viability, i.e., cell survival) compared to the untreated cells (controls). The cells were treated with a series of dilutions made by diluting full strength (100%) EVOO-PE to concentrations of 0.025–0.400 % (v/v) of EVOO-PE in the medium.
(§2) Cells were grown in complete cell culture media, consisting of RPMI 1640, 2 mmol/L glutamine, 10% heat-inactivated foetal bovine serum (FBS), penicillin (100 IU/mL; 1 IU 67.7 µg/mL), and streptomycin (100 µg/mL). Cultures were maintained in a moisturized atmosphere with 5% CO2 at 37 °C and 95% relative humidity. All experiments were performed on cells between passages 4 and 8. The biological activity of the three EVOO-Pes, DTIC, OCEIN, and OCAL, as well as biological activity of the three EVOO-PEs following 6 h pre-incubation with DTIC was determined using a CellTiter 96®AQueous One Solution Cell Proliferation Assay. In short, 100 µL of cell cultures was seeded into 96-well tissue culture plates (A375 and HaCaT at a concentration of 2 × 10^3 cells/well, A375M at 7 × 10^3 cells/well). The next day, the medium was aspirated and media containing different concentrations of compounds were added to each well. All test compounds except DTIC were initially dissolved in DMSO and serially diluted in culture medium to obtain the final concentrations. DTIC was initially dissolved in culture medium, warmed to 37 °C, activated during 1 h exposure to light, and diluted in culture medium. The controls contained the test model cells and culture medium (containing either the complete medium or the DMSO in the highest final concentration, 0.2% and 0.4%) but no test compounds. The cells were incubated for 48 h before biological activity was measured. When investigating the combined effect, we exposed cells to DTIC for 6 h, removed the medium, and exposed the cells to medium containing EVOO-PE extracts for the next 24 h. In addition to the non-treated cells, the controls for experiments with DTIC pre-incubation were cells that had been exposed to DTIC for 6 h and cultured in a complete medium afterwards (without EVOO-PE). After incubation, media were aspirated, and 90 µL of serum-free medium containing MTS was added, according to the manufacturer’s instructions. After 1.5 h of incubation in the dark, the absorbance was measured at a wavelength of 490 nm using a microplate reader, Victor2-1420 Multilabel Counter (PerkinElmer, Yokohama, Japan). A negative control (medium without cells) was used as a blank. All experiments were performed in hexaplicate.
(§3) The GraphPad Prism software version 9.0.0 for Windows (GraphPad Software, San Diego, CA, USA), was used for the determination of inhibitory concentration as well as for statistical analysis. The normality of the data distribution was accessed using Kolmogorov–Smirnov and Shapiro–Wilk tests. The IC60 and IC50 values (concentrations that reduced cell growth to 60% or 50% of the initial value, respectively) were determined using a nonlinear regression curve fit. […]

[1] = test system: A375M metastatic melanoma cell line; experiment: MTS assay of metabolic activity (cell viability), 48 h exposure, A375M cells; assay type: cell-based, human; settings: for effect on A375M cells: Figure S5b
Description: as §1
as §2, with “The controls contained the test model cells and culture medium (containing either the complete medium or the DMSO in the highest final concentration, 0.2% and 0.4%) but no test compounds.” left out, “When investigating the combined effect, we exposed cells to DTIC for 6 h, removed the medium, and exposed the cells to medium containing EVOO-PE extracts for the next 24 h. In addition to the non-treated cells, the controls for experiments with DTIC pre-incubation were cells that had been exposed to DTIC for 6 h and cultured in a complete medium afterwards (without EVOO-PE). After incubation, media were aspirated, and 90 µL of serum-free medium containing MTS was added, according to the manufacturer’s instructions.” left out, “A negative control (medium without cells) was used as a blank. All experiments were performed in hexaplicate.” left out

[2] = test system: HaCaT immortalized keratinocytes; experiment: MTS assay of metabolic activity (cell viability), 48 h exposure, HaCaT cells; assay type: cell-based; settings: ± SEM, DTIC applied up to 1000 µM, italic values extrapolated; for IC50: Homo sapiens
Description: as §1, §2, §3

A375 cells = settings: cited from earlier work; for IC50: homemade isolated OCAL purified to 95%
501Mel melanoma cells = test system: 501Mel melanoma cells; set-up: method as in earlier work; settings: ref 22 (Carpi et al.); read-out: IC50 of OCEIN on 501Mel melanoma cells; cited from earlier work

## CN(C)/N=N/c1[nH]cnc1C(N)=O [DTIC, dacarbazine]
A375 melanoma cell line
  IC60: 214.358 ± 13.449 µM
A375 melanoma cell line; Homo sapiens, A-375, 48 h
  IC50: 362 µM
[1]; A375M, ± SEM, DTIC applied up to 1000 µM, interpret with caution
  IC60: 709.780 ± 99.634 µM
[1]; Homo sapiens, A375M, ± SEM, DTIC applied up to 1000 µM, interpret with caution
  IC50: 872 ± 62.2 µM
[2]
  IC50: > 1000 µM
  IC60: 1137 ± 93.752 µM

## C/C=C(/C=O)[C@@H](CC=O)CC(=O)OCCc1ccc(O)cc1 [OCAL, oleocanthal]
A375 cells; 60 µM OCAL (highest applied), cell line not given, ref 25 (Gu et al.)
  viability compared to control: ~ 80%
A375 cells; ref 24 (Fogli et al.)
  IC50: 13.6 µM
A375 cells; ref 25 (Gu et al.)
  IC50: ~20 µM
A375 melanoma cell line
  IC60: 58.488 µM and 58.488 ± 1.836 µM
  IC50: 67.5 ± 1.86 µM
A375 melanoma cell line; Homo sapiens, A-375, 48 h
  IC50: 67 µM
A375 melanoma cell line; Homo sapiens, A-375, 60 µM OCAL, cell line not given, read-out: viability compared to control
  viability at 60 µM: ~80%
[1]
  effect on A375M cells: failed to provoke any effect
[2]
  IC50: 130 ± 3.21 µM
  IC60: 112.827 ± 2.904 µM

## CC=C(C=O)C(CC=O)CC(=O)OCCc1ccc(O)c(O)c1 (centres unmarked) [OCEIN, oleacein]
501Mel melanoma cells
  IC50: 82 µM
A375 melanoma cell line
  IC60: 101.052 µM and 101.052 ± 4.610 µM
  IC50: 113 ± 4.92 µM
A375 melanoma cell line; Homo sapiens, A-375, 48 h
  IC50: 112 µM
[1]
  effect on A375M cells: failed to provoke any effect
[2]
  IC50: 114 ± 2.3 µM
  IC60: 103.061 ± 2.086 µM
